Results as given in article PMC7413254 (Nature Communications, 2020).
Where two headings read alike, the source gives them in different places.

Tests used:
non-expressing oocytes [1] = assay: cells; format: cell-based, Xenopus laevis; conditions: Xenopus laevis, total [3H]CQ transport; for inhibition at 500 µM: [test solute] = 0.5 mM; for inhibition at 1000 µM: [test solute] = 1 mM; for inhibition at 2000 µM: [test solute] = 2 mM
Outline: (§1)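 Radioactivity accumulated per oocyte, read by liquid scintillation after 10% SDS lysis, served as the uptake measure. Incubations ran 1.5 h at 27.5 °C in ND96 at pH 5.5, matching digestive-vacuole acidity.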

PfCRT^3D7 [2] = target: T1, PfCRT^3D7 (Plasmodium falciparum, UniProt Q8IBZ9); assay: cell-based; format: cell-based; conditions: total [3H]CQ transport; for inhibition at 500 µM: [test solute] = 0.5 mM; for inhibition at 1000 µM: [test solute] = 1 mM; for inhibition at 2000 µM: [test solute] = 2 mM
Outline: as §1

PfCRT^Dd2 [3] = target: T2, PfCRT^Dd2 (Plasmodium falciparum, UniProt Q9N623, A220S/I356T/K76T/M74I/N326S/N75E/Q271E/R371I); assay: [3H]CQ uptake into Xenopus oocytes, cis-inhibition by unlabelled solute; format: cell-based
Outline: as §1

PfCRT^Ecu1110 [4] = target: T3, PfCRT^Ecu1110 (Plasmodium falciparum, UniProt Q9N623, A220S/I356L/K76T/N326D); assay: as above; format: cell-based
Outline: as §1

non-expressing oocytes [5] = format: cell-based, Xenopus laevis; conditions: total [3H]CQ transport; for Uptake of [3H]CQ (% non-expressing oocyte control), trans-stimulation: non-expressing oocytes, normalised to the oocyte type control; for Uptake of [3H]CQ (% PfCRTDd2 control), trans-stimulation, non-expressing oocytes: mean ± SEM, SEM
Outline: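 Oocytes (ten per treatment, ≥4 independent frogs/days) were preloaded by injecting VF-6 in 25 nL ND96 at pH 5.0, 5.5, 6.0 or 7.0, or Na^+-free choline buffer, then uptake run 1.5 h, 27.5 °C, ND96 pH 5.5 by default. Internal concentrations assumed ~400 nL oocyte volume.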

PfCRT^3D7 [6] = target: T1, PfCRT^3D7; assay: cell-based; format: cell-based
Outline: (§2)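 Transport measured in Xenopus oocytes expressing the transporters, 1.5 h at 27.5 °C in ND96 pH 5.5 unless noted. For trans-stimulation, VF-6 injected in 25 nL ND96 at pH 5.0–7.0 or Na^+-free (choline) buffer; intracellular levels based on ~400 nL oocyte volume. Ten oocytes per treatment, ≥4 experiments.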

PfCRT^Dd2 [7] = target: T2, PfCRT^Dd2; assay: cell-based; format: cell-based; conditions: […]; for activity at 45000 µM: [test solute]i = 45 mM (30 mM for some solutes due to solubility)
Outline: as §2

PfCRT^Ecu1110 [8] = target: T3, PfCRT^Ecu1110; assay: cell-based; format: cell-based; conditions: […]
Outline: as §2

PfNT1 = target: T4, PfNT1 (Plasmodium falciparum, UniProt Q8IDM6); assay: cell-based; format: cell-based; conditions: for activity at 5000 µM: total [3H]CQ transport
T4 construct: expressed in transfected cells; host or cells: Xenopus laevis oocytes (stage V-VI), cRNA-injected
Outline: as §2

PfCRT [9] = assay: Influx of VF-6 via PfCRT into the oocyte, solutes tested as potential co-substrates; format: cell-based, Plasmodium falciparum; set-up: key: X: Compounds that have been tested as potential co-substrates but are not required for influx of VF-6 via PfCRT into the oocyte; conditions: X marks the solute
PfCRT [10] = assay: Test of solutes as potential co-substrates for influx of VF-6 via PfCRT into the oocyte; format: cell-based, Plasmodium falciparum; set-up: key: X: Compounds that have been tested as potential co-substrates but are not required for influx of VF-6 via PfCRT into the oocyte; conditions: X = tested
[11] = Oocyte, mean ± SEM, SEM, read-out: Uptake of [3H]CQ (% PfCRTDd2 control), cis-inhibition, non-expressing oocytes
[12] = non-expressing oocytes, normalised to the oocyte type control, read-out: Uptake of [3H]CQ (% non-expressing oocyte control), cis-inhibition
[13] = PfCRT3D7 oocytes, normalised to the oocyte type control, read-out: Uptake of [3H]CQ (% PfCRT3D7 control), cis-inhibition
[14] = mean ± SEM, SEM, read-out: Uptake of [3H]CQ (% PfCRTDd2 control), cis-inhibition, PfCRT3D7
[15] = read-out: PfCRT-mediated [3H]CQ transport, cis-inhibition (% PfCRTDd2 control)
[16] = read-out: Uptake of [3H]CQ (% PfCRTDd2 control), cis-inhibition, PfCRTDd2, SEM
[17] = read-out: PfCRT-mediated [3H]CQ transport, cis-inhibition (% PfCRTEcu1110 control)
[18] = read-out: Uptake of [3H]CQ (% PfCRTDd2 control), cis-inhibition, PfCRTEcu1110, SEM
[19] = read-out: Uptake of [3H]CQ (% PfCRTEcu1110 control), cis-inhibition
[20] = read-out: [3H]CQ transport (% PfCRTEcu1110 control), cis-inhibition, PfCRTEcu1110, SEM

T2 sequence (Q9N623 whole entry A220S/I356T/K76T/M74I/N326S/N75E/Q271E/R371I): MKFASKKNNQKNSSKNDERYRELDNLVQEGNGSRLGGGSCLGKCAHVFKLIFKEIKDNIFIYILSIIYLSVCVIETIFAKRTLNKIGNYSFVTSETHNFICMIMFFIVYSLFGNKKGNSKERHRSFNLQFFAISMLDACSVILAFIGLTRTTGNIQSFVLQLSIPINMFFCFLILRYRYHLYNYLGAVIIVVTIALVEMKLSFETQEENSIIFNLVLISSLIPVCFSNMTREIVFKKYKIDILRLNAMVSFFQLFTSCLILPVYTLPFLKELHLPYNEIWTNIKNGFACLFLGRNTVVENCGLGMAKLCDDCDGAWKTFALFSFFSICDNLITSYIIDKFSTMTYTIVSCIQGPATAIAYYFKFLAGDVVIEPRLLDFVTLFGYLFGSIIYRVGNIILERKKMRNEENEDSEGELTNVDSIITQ
T1 sequence (Q8IBZ9 59-398): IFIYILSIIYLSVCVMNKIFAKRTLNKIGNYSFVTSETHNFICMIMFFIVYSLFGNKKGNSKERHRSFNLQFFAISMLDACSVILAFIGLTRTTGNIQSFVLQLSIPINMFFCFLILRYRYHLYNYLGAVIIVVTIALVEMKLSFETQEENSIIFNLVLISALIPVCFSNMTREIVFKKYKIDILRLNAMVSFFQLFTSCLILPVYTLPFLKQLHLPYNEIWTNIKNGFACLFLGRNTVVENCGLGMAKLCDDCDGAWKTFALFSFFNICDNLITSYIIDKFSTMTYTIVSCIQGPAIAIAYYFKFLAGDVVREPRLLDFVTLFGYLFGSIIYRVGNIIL
T3 sequence (Q9N623 whole entry A220S/I356L/K76T/N326D): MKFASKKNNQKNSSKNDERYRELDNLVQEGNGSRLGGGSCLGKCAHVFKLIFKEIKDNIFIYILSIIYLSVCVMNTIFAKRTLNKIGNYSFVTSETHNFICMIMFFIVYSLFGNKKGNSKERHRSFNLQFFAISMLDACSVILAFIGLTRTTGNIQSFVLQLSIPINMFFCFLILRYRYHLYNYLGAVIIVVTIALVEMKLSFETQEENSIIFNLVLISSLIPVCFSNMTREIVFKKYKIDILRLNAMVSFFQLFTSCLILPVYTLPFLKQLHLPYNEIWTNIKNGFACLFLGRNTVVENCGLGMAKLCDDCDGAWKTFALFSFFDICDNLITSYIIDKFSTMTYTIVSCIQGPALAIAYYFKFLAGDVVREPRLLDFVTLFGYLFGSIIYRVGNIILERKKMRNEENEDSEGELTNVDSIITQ
T4 sequence (Q8IDM6 whole entry): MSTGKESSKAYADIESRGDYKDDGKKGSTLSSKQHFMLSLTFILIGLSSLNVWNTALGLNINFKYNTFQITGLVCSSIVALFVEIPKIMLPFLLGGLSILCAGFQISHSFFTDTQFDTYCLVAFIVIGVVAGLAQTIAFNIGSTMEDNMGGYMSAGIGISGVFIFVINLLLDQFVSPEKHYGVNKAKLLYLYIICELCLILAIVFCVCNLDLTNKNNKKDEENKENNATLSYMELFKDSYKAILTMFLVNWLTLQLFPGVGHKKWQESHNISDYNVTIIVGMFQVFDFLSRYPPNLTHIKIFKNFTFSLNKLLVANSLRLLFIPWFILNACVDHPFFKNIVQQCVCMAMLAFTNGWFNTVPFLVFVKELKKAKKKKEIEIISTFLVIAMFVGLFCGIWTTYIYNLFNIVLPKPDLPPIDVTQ

SMILES: N[C@@H](CO)C(=O)O [L-serine]
- inhibition at 500 µM (non-expressing oocytes [1]; [11]): 2.9 ± 0.06%
- inhibition at 1000 µM (non-expressing oocytes [1]; [11]): 3.6 ± 0.09%
- inhibition at 2000 µM (non-expressing oocytes [1]; [11]): 3.2 ± 0.1%
- inhibition at 500 µM (non-expressing oocytes [1]; [12]): 100 ± 4.3%
- inhibition at 1000 µM (non-expressing oocytes [1]; [12]): 99 ± 3.7%
- inhibition at 2000 µM (non-expressing oocytes [1]; [12]): 99 ± 5.2%
- inhibition at 500 µM (PfCRT^3D7 [2]; [13]): 98 ± 3.1%
- inhibition at 1000 µM (PfCRT^3D7 [2]; [13]): 100 ± 3.6%
- inhibition at 2000 µM (PfCRT^3D7 [2]; [13]): 98 ± 3.6%
- inhibition at 500 µM (PfCRT^3D7 [2]; [14]): 3.1 ± 0.06%
- inhibition at 1000 µM (PfCRT^3D7 [2]; [14]): 2.2 ± 0.03%
- inhibition at 2000 µM (PfCRT^3D7 [2]; [14]): 2.6 ± 0.08%
- inhibition at 500 µM (PfCRT^Dd2 [3]; [15]): 99 ± 4.6%
- inhibition at 2000 µM (PfCRT^Dd2 [3]; [15]): 94 ± 2.1%
- inhibition at 500 µM (PfCRT^Dd2 [3]; [16]): 101 ± 3.3%
- inhibition at 1000 µM (PfCRT^Dd2 [3]; [16]): 98 ± 2.6%
- inhibition at 2000 µM (PfCRT^Dd2 [3]; [16]): 96 ± 3.5%
- inhibition at 500 µM (PfCRT^Ecu1110 [4]; [17]): 97 ± 1.5%
- inhibition at 1000 µM (PfCRT^Ecu1110 [4]; [17]): 97 ± 3.5%
- inhibition at 2000 µM (PfCRT^Ecu1110 [4]; [17]): 98 ± 3.2%
- inhibition at 500 µM (PfCRT^Ecu1110 [4]; [18]): 32 ± 1.9%
- inhibition at 1000 µM (PfCRT^Ecu1110 [4]; [18]): 32 ± 2.1%
- inhibition at 2000 µM (PfCRT^Ecu1110 [4]; [18]): 33 ± 1.8%
- inhibition at 500 µM (PfCRT^Ecu1110 [4]; [19]): 101 ± 2.2%
- inhibition at 1000 µM (PfCRT^Ecu1110 [4]; [19]): 101 ± 1.7%
- inhibition at 2000 µM (PfCRT^Ecu1110 [4]; [19]): 100 ± 2.2%
- inhibition at 500 µM (PfCRT^Ecu1110 [4]; [20]): 29 ± 1.7%
- inhibition at 1000 µM (PfCRT^Ecu1110 [4]; [20]): 29 ± 1.1%
- inhibition at 2000 µM (PfCRT^Ecu1110 [4]; [20]): 30 ± 0.6%
- Uptake of [3H]CQ (% non-expressing oocyte control), trans-stimulation (non-expressing oocytes [5]; [test solute]i = 5 mM): 100 ± 3.1 % non-expressing oocyte control
- Uptake of [3H]CQ (% non-expressing oocyte control), trans-stimulation (non-expressing oocytes [5]; [test solute]i = 45 mM (30 mM for some solutes due to solubility)): 101 ± 2.8 % non-expressing oocyte control
- Uptake of [3H]CQ (% PfCRTDd2 control), trans-stimulation, non-expressing oocytes (non-expressing oocytes [5]; [test solute]i = 5 mM (intracellular)): 2.8 ± 0.03 % PfCRTDd2 control
- Uptake of [3H]CQ (% PfCRTDd2 control), trans-stimulation, non-expressing oocytes (non-expressing oocytes [5]; [test solute]i = 45 mM (intracellular; 30 mM for some solutes due to solubility)): 2.2 ± 0.01 % PfCRTDd2 control
- activity at 5000 µM (PfCRT^3D7 [6]; PfCRT3D7 oocytes, [test solute]i = 5 mM, total [3H]CQ transport, normalised to the oocyte type control, read-out: Uptake of [3H]CQ (% PfCRT3D7 control), trans-stimulation): 100 ± 3.6%
- [3H]CQ transport (% PfCRT3D7 control), trans-stimulation, PfCRT3D7 (PfCRT^3D7 [6]; SEM): 0.3 ± 0.01 % PfCRT3D7 control
- activity at 5000 µM (PfCRT^3D7 [6]; [test solute]i = 5 mM (intracellular), PfCRT3D7 oocytes, normalised to oocyte type control, read-out: PfCRT-mediated [3H]CQ transport, trans-stimulation (% PfCRT3D7 control)): 98 ± 4.1%
- activity at 45000 µM (PfCRT^3D7 [6]; SEM, read-out: Uptake of [3H]CQ (% PfCRTDd2 control), trans-stimulation, PfCRT3D7): 3.3 ± 0.06%
- activity at 45000 µM (PfCRT^3D7 [6]; read-out: PfCRT-mediated [3H]CQ transport, trans-stimulation (% PfCRT3D7 control)): 97 ± 4.5%
- activity at 45000 µM (PfCRT^3D7 [6]; read-out: Uptake of [3H]CQ (% PfCRT3D7 control), trans-stimulation): 99 ± 3.7%
- activity at 5000 µM (PfCRT^3D7 [6]; total [3H]CQ transport, [test solute]i = 5 mM (intracellular), mean ± SEM, SEM, read-out: Uptake of [3H]CQ (% PfCRTDd2 control), trans-stimulation, PfCRT3D7): 3.3 ± 0.06%
- activity at 5000 µM (PfCRT^Dd2 [7]; pH 5.5, read-out: PfCRT-mediated [3H]CQ transport, trans-stimulation (% PfCRTDd2 control), [test solute]i = 5 mM (intracellular), PfCRTDd2 oocytes, normalised to oocyte type control): 97 ± 4.4%
- activity at 5000 µM (PfCRT^Dd2 [7]; pH 5.5, read-out: Uptake of [3H]CQ (% PfCRTDd2 control), trans-stimulation, PfCRTDd2, total [3H]CQ transport, [test solute]i = 5 mM (intracellular), mean ± SEM, SEM): 99 ± 3.2%
- activity at 5000 µM (PfCRT^Dd2 [7]; pH 5.5, read-out: Uptake of [3H]CQ (% PfCRTDd2 control), trans-stimulation, PfCRTDd2 oocytes, [test solute]i = 5 mM, total [3H]CQ transport, normalised to the oocyte type control): 99 ± 3.2%
- activity at 45000 µM (PfCRT^Dd2 [7]; pH 5.5, read-out: Uptake of [3H]CQ (% PfCRTDd2 control), trans-stimulation, PfCRTDd2 oocytes, total [3H]CQ transport, normalised to the oocyte type control): 100 ± 2.9%
- activity at 5000 µM (PfCRT^Dd2 [7]; pH 5.5, read-out: [3H]CQ transport (% PfCRTDd2 control), trans-stimulation, PfCRTDd2, trans-stimulation, [test solute]i = 5 mM (injected), PfCRT-mediated component (background subtracted), mean ± SEM, SEM): 97 ± 4.4%
- activity at 45000 µM (PfCRT^Dd2 [7]; pH 5.5, read-out: [3H]CQ transport (% PfCRTDd2 control), trans-stimulation, PfCRTDd2, trans-stimulation, PfCRT-mediated component (background subtracted), mean ± SEM, SEM): 98 ± 3.6%
- activity at 5000 µM (PfCRT^Ecu1110 [8]; pH 5.5, read-out: PfCRT-mediated [3H]CQ transport, trans-stimulation (% PfCRTEcu1110 control), [test solute]i = 5 mM (intracellular), PfCRTEcu1110 oocytes, normalised to oocyte type control): 98 ± 3.1%
- activity at 5000 µM (PfCRT^Ecu1110 [8]; pH 5.5, read-out: Uptake of [3H]CQ (% PfCRTEcu1110 control), trans-stimulation, PfCRTEcu1110 oocytes, [test solute]i = 5 mM, total [3H]CQ transport, normalised to the oocyte type control): 100 ± 2.5%
- activity at 45000 µM (PfCRT^Ecu1110 [8]; pH 5.5, read-out: Uptake of [3H]CQ (% PfCRTEcu1110 control), trans-stimulation, PfCRTEcu1110 oocytes, [test solute]i = 45 mM (30 mM for some solutes due to solubility), total [3H]CQ transport, normalised to the oocyte type control): 98 ± 3.1%
- activity at 5000 µM (PfCRT^Ecu1110 [8]; read-out: Uptake of [3H]CQ (% PfCRTDd2 control), trans-stimulation, PfCRTEcu1110, total [3H]CQ transport, [test solute]i = 5 mM (intracellular), mean ± SEM, SEM): 36 ± 1.7%
- activity at 45000 µM (PfCRT^Ecu1110 [8]; read-out: Uptake of [3H]CQ (% PfCRTDd2 control), trans-stimulation, PfCRTEcu1110, total [3H]CQ transport, [test solute]i = 45 mM (intracellular; 30 mM for some solutes due to solubility), mean ± SEM, SEM): 35 ± 1.6%
- activity at 5000 µM (PfNT1; PfNT1 oocytes, [test solute]i = 5 mM, normalised to the oocyte type control, read-out: Uptake of [3H]CQ (% PfNT1 control), trans-stimulation): 98 ± 2.6%
- activity at 45000 µM (PfNT1; SEM, read-out: Uptake of [3H]CQ (% PfCRTDd2 control), trans-stimulation, PfNT1): 2.3 ± 0.06%
- activity at 45000 µM (PfNT1; read-out: Uptake of [3H]CQ (% PfNT1 control), trans-stimulation): 98 ± 2.6%
- activity at 5000 µM (PfNT1; [test solute]i = 5 mM (intracellular), mean ± SEM, SEM, read-out: Uptake of [3H]CQ (% PfCRTDd2 control), trans-stimulation, PfNT1): 3 ± 0.02%
- Compounds that have been tested as potential co-substrates but are not required for influx of VF-6 via PfCRT into the oocyte (PfCRT [9]): X
- Tested as potential co-substrate but not required for influx of VF-6 via PfCRT into the oocyte (PfCRT [10]): X
